Results on five compounds are retold here after ChEMBL document CHEMBL1139186, “Design and evaluation of 'Linkerless' hydroxamic acids as selective HDAC8 inhibitors” (Bioorg Med Chem Lett, 2007).

By pIC50 is commonly meant −log10 of the IC50, conventionally taken in molar units. A low value points to a large IC50.

Each structure is given as a SMILES string. pIC50: −log10 of the molar value. Activity calls are given as the source filed them. No cut-off for these calls is given here. Bounds are passed on as bounds.

One experiment has as its target Histone deacetylase 1 (Homo sapiens, UniProt Q13547). Kind of experiment: Inhibition of human HDAC1 by [3H]acetyl histone peptide assay.
Experiment [1] has as its target T1, Protein deacetylase HDAC6 (Homo sapiens, UniProt Q9UBN7).
T1 sequence (Q9UBN7 whole entry): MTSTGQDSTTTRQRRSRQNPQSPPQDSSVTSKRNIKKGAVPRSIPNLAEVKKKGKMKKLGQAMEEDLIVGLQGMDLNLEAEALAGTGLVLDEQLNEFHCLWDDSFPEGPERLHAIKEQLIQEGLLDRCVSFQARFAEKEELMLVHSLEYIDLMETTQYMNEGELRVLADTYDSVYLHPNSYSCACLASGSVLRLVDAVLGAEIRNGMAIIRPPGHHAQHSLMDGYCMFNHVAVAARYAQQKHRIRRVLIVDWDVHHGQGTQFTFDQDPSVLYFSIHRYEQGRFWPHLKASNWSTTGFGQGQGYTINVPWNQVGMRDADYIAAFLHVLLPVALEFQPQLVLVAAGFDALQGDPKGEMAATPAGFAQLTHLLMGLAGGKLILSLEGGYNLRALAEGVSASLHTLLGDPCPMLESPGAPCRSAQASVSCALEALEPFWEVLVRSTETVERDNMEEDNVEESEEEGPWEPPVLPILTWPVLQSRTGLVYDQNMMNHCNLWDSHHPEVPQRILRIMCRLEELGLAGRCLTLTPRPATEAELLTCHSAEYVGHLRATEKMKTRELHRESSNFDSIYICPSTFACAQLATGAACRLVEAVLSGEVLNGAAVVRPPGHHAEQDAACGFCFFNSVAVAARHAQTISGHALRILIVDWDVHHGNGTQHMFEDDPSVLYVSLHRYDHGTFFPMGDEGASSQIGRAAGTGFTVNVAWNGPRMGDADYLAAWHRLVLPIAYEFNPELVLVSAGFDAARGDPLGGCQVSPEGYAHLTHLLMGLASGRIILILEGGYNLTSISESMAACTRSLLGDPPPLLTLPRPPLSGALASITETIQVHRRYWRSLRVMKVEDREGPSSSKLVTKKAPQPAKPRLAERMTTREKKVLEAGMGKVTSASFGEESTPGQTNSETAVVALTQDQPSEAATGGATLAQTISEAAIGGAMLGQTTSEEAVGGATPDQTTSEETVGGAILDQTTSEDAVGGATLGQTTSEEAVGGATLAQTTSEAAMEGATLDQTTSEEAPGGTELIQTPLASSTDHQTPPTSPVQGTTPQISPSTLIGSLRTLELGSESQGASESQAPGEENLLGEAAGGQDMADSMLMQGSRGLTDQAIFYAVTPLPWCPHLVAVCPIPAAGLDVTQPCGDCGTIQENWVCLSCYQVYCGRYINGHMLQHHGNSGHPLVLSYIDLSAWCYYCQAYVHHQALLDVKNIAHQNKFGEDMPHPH
Kind of experiment: Inhibition of human HDAC6 by [3H]acetyl histone peptide assay.

Experiment [2] deals with HeLa. Kind of experiment: Increase in lysine-acetylated tubulin levels in HeLa cells by Western blot. It counts as functional, cell-based. Particulars: Homo sapiens. For orientation: Immunoblotting shows a protein as a band on a membrane.
Experiment [3] has as its system HeLa. Kind of experiment: Increase in lysine-acetylated histone H4 levels in HeLa cells by Western blot. It counts as functional, cell-based. To be noted: Homo sapiens.
Experiment [4] concerns HEK293. As to the kind of experiment: Increase in lysine-acetylated tubulin levels in HEK293 cells by Western blot. It counts as functional, cell-based. To be noted: Homo sapiens.
The test system of experiment [5] is HEK293. As to the kind of experiment: Increase in lysine-acetylated histone H4 levels in HEK293 cells by Western blot. It counts as functional, cell-based. To be noted: Homo sapiens.
For another experiment, the target named is T2, Histone deacetylase 8 (Homo sapiens, UniProt Q9BY41).
T2 sequence (Q9BY41 whole entry): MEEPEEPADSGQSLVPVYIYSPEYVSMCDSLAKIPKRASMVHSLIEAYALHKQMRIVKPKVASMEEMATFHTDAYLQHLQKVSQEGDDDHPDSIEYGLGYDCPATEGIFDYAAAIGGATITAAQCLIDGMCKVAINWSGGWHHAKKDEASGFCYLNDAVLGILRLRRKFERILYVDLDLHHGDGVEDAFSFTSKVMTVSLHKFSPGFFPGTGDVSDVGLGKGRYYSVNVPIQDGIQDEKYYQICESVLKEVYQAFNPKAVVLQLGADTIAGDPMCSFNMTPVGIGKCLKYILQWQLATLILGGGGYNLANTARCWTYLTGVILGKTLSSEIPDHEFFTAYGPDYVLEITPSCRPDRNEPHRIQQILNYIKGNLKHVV

Histone deacetylase 1, sequence (Q13547 whole entry): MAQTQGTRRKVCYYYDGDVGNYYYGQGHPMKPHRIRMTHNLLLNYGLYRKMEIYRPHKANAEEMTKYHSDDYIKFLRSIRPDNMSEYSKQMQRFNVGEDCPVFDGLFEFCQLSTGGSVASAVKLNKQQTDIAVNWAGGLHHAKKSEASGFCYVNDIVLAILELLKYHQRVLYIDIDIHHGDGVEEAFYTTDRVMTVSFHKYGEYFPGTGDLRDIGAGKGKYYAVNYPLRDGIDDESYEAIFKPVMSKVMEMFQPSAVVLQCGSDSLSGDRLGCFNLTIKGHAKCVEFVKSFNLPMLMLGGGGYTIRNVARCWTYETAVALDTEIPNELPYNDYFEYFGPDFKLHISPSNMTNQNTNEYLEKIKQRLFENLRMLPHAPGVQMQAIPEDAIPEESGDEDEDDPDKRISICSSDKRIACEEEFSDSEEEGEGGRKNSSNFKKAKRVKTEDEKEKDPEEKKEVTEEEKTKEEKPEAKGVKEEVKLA
Description for Histone deacetylase 8: Inhibition of human HDAC8 by [3H]acetyl histone peptide assay

For `O=C(/C=C/c1cccc2ccccc12)NO`, the pIC50 is < 4.00 on Histone deacetylase 1, 4.09 in experiment [1] and 6.15 against Histone deacetylase 8. Besides, the outcome with HeLa [2], in the experiment with HeLa [3], in the experiment with HEK293 [4] and in the experiment with HEK293 [5] was Active.
As for `O=C(NO)c1ccc(-c2cccc3ccccc23)cc1`, the pIC50 at Histone deacetylase 1 is < 4.00; in experiment [1] it was 4.26; against Histone deacetylase 8 it was 6.52.
Consider `O=C(NO)c1cccc2ccccc12`, for which the pIC50 was < 4.00 on Histone deacetylase 1, < 4.00 in experiment [1] and 4.85 on Histone deacetylase 8.
As for `O=C(NO)c1cccc(-c2ccccc2)c1`, the pIC50 against Histone deacetylase 1 is < 4.00; in experiment [1], < 4.00; against Histone deacetylase 8, 4.70.
`O=C(NO)c1cccc(Oc2ccccc2)c1` showed a pIC50 at Histone deacetylase 8 of 5.18.
